Test results as given in the CheMixHub viscosity set.

Experiment: xn = mol fraction of the nth substance listed

CC(C)CC(C)(C)C + CCCCCCC
101 kPa
Details | viscosity [mPa·s]
293.15 K, x1 = 0.6 | 0.454
293.15 K, x1 = 0.8 | 0.473
298.15 K, x1 = 0.1802 | 0.4055
298.15 K, x1 = 0.2943 | 0.4133
298.15 K, x1 = 0.3739 | 0.4193
298.15 K, x1 = 0.4883 | 0.4269
298.15 K, x1 = 0.5806 | 0.4357
298.15 K, x1 = 0.6254 | 0.4399
298.15 K, x1 = 0.7244 | 0.4491
298.15 K, x1 = 0.799 | 0.4562
298.15 K, x1 = 0.8649 | 0.461
298.15 K, x1 = 0.9217 | 0.4665
298.15 K, x1 = 0.9641 | 0.4743
313.15 K, x1 = 0.2 | 0.343
313.15 K, x1 = 0.4 | 0.354
313.15 K, x1 = 0.6 | 0.366
313.15 K, x1 = 0.8 | 0.38

CCCCCCO + CCCCCCC
viscosity [mPa·s], 101.33 kPa
Details | x1 = 0.0567 | x1 = 0.1134 | x1 = 0.2217 | x1 = 0.3279 | x1 = 0.4307 | x1 = 0.5294 | x1 = 0.6292 | x1 = 0.7248 | x1 = 0.8643 | x1 = 0.9526
298.15 K | 0.4405 | 0.4541 | 0.5473 | 0.6831 | 0.8745 | 1.142 | 1.523 | 2.047 | 2.93 | 3.788
308.15 K | 0.396 | 0.4021 | 0.4788 | 0.5863 | 0.7378 | 0.9541 | 1.201 | 1.574 | 2.299 | 2.921

O=C1CCCCC1 + CCCCCCC
viscosity [mPa·s]
Details | 298.15 K | 303.15 K | 308.15 K
101 kPa, x1 = 0.1125 | 0.437 | – | –
101 kPa, x1 = 0.2097 | 0.484 | – | –
101 kPa, x1 = 0.3055 | 0.539 | – | –
101 kPa, x1 = 0.4144 | 0.616 | – | –
101 kPa, x1 = 0.5033 | 0.702 | – | –
101 kPa, x1 = 0.5928 | 0.803 | – | –
101 kPa, x1 = 0.7027 | 0.97 | – | –
101 kPa, x1 = 0.8091 | 1.184 | – | –
101 kPa, x1 = 0.8686 | 1.34 | – | –
101.33 kPa, x1 = 0.1046 | 0.427 | 0.403 | 0.384
101.33 kPa, x1 = 0.2024 | 0.472 | 0.445 | 0.421
101.33 kPa, x1 = 0.3035 | 0.529 | 0.497 | 0.47
101.33 kPa, x1 = 0.4016 | 0.606 | 0.564 | 0.53
101.33 kPa, x1 = 0.5025 | 0.69 | 0.644 | 0.605
101.33 kPa, x1 = 0.5993 | 0.805 | 0.75 | 0.701
101.33 kPa, x1 = 0.7026 | 0.96 | 0.893 | 0.828
101.33 kPa, x1 = 0.8009 | 1.178 | 1.085 | 1.004
101.33 kPa, x1 = 0.9009 | 1.474 | 1.349 | 1.235

CC(C)CC(C)(C)C + CCCCCCCC
viscosity [mPa·s]
Details | x1 = 0.2 | x1 = 0.4 | x1 = 0.5 | x1 = 0.6 | x1 = 0.8
293.15 K, 101 kPa | 0.528 | 0.519 | – | 0.51 | 0.503
298.2 K, 100 kPa | – | – | 0.4882 | – | –
313.15 K, 101 kPa | 0.421 | 0.415 | – | 0.408 | 0.403
